Values quoted from earlier work as cited in patent US11865247B2, “Inhalers and related methods” (Norton (Waterford) Limited, priority 2017, dated 2024).

surface tension (as liquid at 25° C.): about 8 mN/m | vapor pressure (at 20° C.): 572 kpa
SMILES: FCC(F)(F)F [HFA134a, 1,1,1,2-tetrafluoroethane]
